The values below come from patent publication EP0463212A1, “Imidazo[2,1-b]thiazole compound anti-ulcer agent containing the same” (NIKKEN CHEMICALS CO., LTD., priority 1990, dated 1992).

SMILES strings stand for the structures.

In one data set the test system is aspirin-induced ulcer. The data set is described as follows: Antiulcer activity against aspirin-induced ulcer model. To be noted: 100 mg/kg oral, 30 min before aspirin 200 mg/kg oral. Type of data set: in vivo, Wistar strain male rats. On the procedure:
Antiulcer activity against aspirin-induced ulcer model
A suspension of each test compound in 5% gum arabic aqueous solution was orally given to Wistar strain male rats (at the age of 7 to 8 weeks, weighing 180 to 227 g; 7-8 rats in the group administered with the test compound; 14-16 rats in the control group) fasted for 24 hours at a dose of 100 mg of the test compound/5 ml/kg. Thirty minutes after administration, aspirin was further orally administered at a dose of 200 mg/kg. Seven hours after administration of aspirin, stomach was excised under ethereal anesthesia and spotted and linear erosion and a long diameter of ulcer were microscopically measured to determine an ulcer index and an inhibition rate.
(§1) In the control group, 5% gum arabic aqueous solution was orally administered at a dose of 5 ml/kg.

For a further data set, the system named is ethanol-induced ulcer. The data set is described as follows: Antiulcer activity against ethanol-induced ulcer model. The conditions noted are these: 100 mg/kg oral. In kind it is in vivo, Wistar strain male rats. On the procedure:
Antiulcer activity against ethanol-induced ulcer model
A suspension of each test compound in 5% gum arabic aqueous solution was orally given to Wistar strain male rats (at the age of 7 to 8 weeks, weighing 180 to 250 g; 5-9 rats in the group administered with the test compound; 4-9 rats in the control group) fasted for 24 hours at a dose of 100 mg of the test compound/5 ml/kg. Thirty minutes after administration, absolute ethanol was further orally administered at a dose of 5 mℓ/kg. One hour after administration of absolute ethanol, the stomach was excised under ethereal anesthesia and the area of an ulcerated portion (mm²) (using microscope) or the proportion (%) thereof to all area of gastric wall (by computer image analysis) were measured to determine an ulcer index and an inhibition rate.
as §1

The next data set has as its system gastric juice secretion. The data set is described as follows: Gastric juice secretion inhibition activity (pyloric ligature). Type of data set: in vivo, Wistar strain male rats. The conditions noted are these: 100 mg/kg oral, pyloric ligature 30 minutes after administration. On the procedure:
Gastric juice secretion inhibition activity
A suspension of each test compound in 5% gum arabic aqueous solution was orally given to Wistar strain male rats (at the age of 7 to 8 weeks, weighing 192 to 241 g; 7-9 rats in the group administered with the test compound; 15 rats in the control group) fasted for 24 hours at a dose of 100 mg of the test compound/5 ml/kg. Thirty minutes after administration (the compounds of Examples 3 and 4) or 60 minutes after administration (the compounds of Examples 1, 2, 5, 6 and 7), pyloric ligature was made under ethereal anesthesia. Four hours after, the stomach was excised under ethereal anesthesia to collect gastric juice. The collected gastric juice was centrifuged (2500 rpm) at 4°C for 10 minutes. After the supernatant was collected, an amount of the gastric juice and its pH were measured using a pH meter. Furthermore, an amount of free hydrochloric acid and the total acidity were measured with Töpfer reagent and phenolphthalein reagent, respectively. Using a part of the gastric juice, pepsin output in the gastric juice was measured using casein as substrate in a manner similar to the method of Anson et al.
as §1

Data set [1] deals with water-immersion stress ulcer. The experiment in a line: Antiulcer activity against water-immersion stress ulcer model. The conditions noted are these: 100 mg/kg oral. In kind it is in vivo, Wistar strain male rats. On the procedure:
Antiulcer activity against water-immersion stress ulcer model
A suspension of each test compound in 5% gum arabic aqueous solution was orally given to Wistar strain male rats (at the age of 7 to 8 weeks, weighing 191 to 238 g; 7-8 rats in the group administered with the test compound; 14-16 rats in the control group) fasted for 24 hours at a dose of 100 mg of the test compound/5 ml/kg. Thirty minutes after administration, the animal was immersed up to the xiphisternum in water bath at 22 ± 1°C using a stress cage made by Tokyo University, Faculty of Pharmacology to apply a stress load for 6 hours. After applying the stress load, the rats had the cervical vertebra dislocated to death. Then, the stomach was excised and, spotted and linear erosion and a long diameter of ulcer were microscopically measured to determine an ulcer index and an inhibition rate.
as §1

Data set [2] relates to SLC-ICR or SLC-ddy strain male mice. The experiment in a line: Acute toxicity. In kind it is in vivo. The conditions noted are these: oral, once, observed for 7 days. The method, then:
A suspension of each test compound in 5% gum arabic aqueous solution was orally given to SLC-ICR or SLC-ddy strain male mice (at the age of 6 to 7 weeks, weighing 26.6 to 33.6 g; 3-8 mice in one group) forcedly once at a dose of 500 mg and 1,000mg of the test compound/5mℓ/kg. For 7 days after the administration, the mice were observed whether they were dead or alive.

On to `CCCC(O)c1c(C)nc2sccn12` (stereo not shown) [Ex. 4, 5-(1-hydroxybutyl)-6-methylimidazo[2,1-b]-thiazole], for which the Ulcer index is 41.3 ± 3.8 mm in the data set on aspirin-induced ulcer (stomach excised 7 hours after aspirin, rats fasted 24 hours); 9.2 ± 3.1^** mm^2 with ethanol-induced ulcer (30 min before absolute ethanol 5 ml/kg oral, 1 hour after ethanol, area of ulcerated portion (microscope)); 7.4 ± 1.5 mm in data set [1] (30 min before water immersion at 22 ± 1°C, stress load for 6 hours). Further, the Inhibition rate in the data set on aspirin-induced ulcer (versus control group) came out at 38.2%; in the data set on ethanol-induced ulcer (from ulcer index in mm^2, versus control group), 94.2%; in data set [1] (30 min before water immersion stress for 6 hours, versus control group), 68.2%. For the same compound, in the data set on gastric juice secretion (four hours after), the “Gastric juice (pH)” value is 2.54 ± 0.27 pH. For the same compound, in the data set with gastric juice secretion (four hours after, Töpfer reagent), the “Free HCℓ” value was determined as 14.3 ± 7.4 mEq/l. In the data set on gastric juice secretion (four hours after, casein as substrate), this compound registered a Pepsin output of 83.1 ± 19.4 units/hr. In the data set with gastric juice secretion (four hours after, phenolphthalein reagent), this compound came in with a Total acidity of 68.8 ± 3.6 mEq/l. Further, the Gastric juice in the data set on gastric juice secretion (gastric juice collected four hours after) worked out at 3.6 ± 0.8 mL. Moreover, the “Mortality rate (No. of death/No. of treated)” value in data set [2] (500 mg/kg) was 3/8; in data set [2] (1000 mg/kg), 5/5.
